Laboratory results published in the supplement of paper PMC10307832.

How the values were obtained:
Test in all cases: relative viability (nuclei count vs DMSO), 5 days (fraction); higher = more cells survive
Vorinostat + Foretinib = compound: O=C(CCCCCCC(=O)Nc1ccccc1)NO [Vorinostat] + COc1cc2c(Oc3ccc(NC(=O)C4(C(=O)Nc5ccc(F)cc5)CC4)cc3F)ccnc2cc1OCCCN1CCOCC1 [Foretinib] (partner 0.25 µM)
Method in brief: (§1)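 After 5 days of treatment, lung cancer cells in 1536-well plates were fixed and stained in a single step (final 0.05% Triton X-100, 1% formaldehyde, 1 ug/ml Hoechst) and their nuclei counted on 4× images. Treatment had been applied by pin tool the day after seeding as one drug alone or as a fixed anchor-drug dose with five library-drug doses (not always all listed) in √10 steps. Relative viability is the nuclei count of treated wells divided by that of vehicle wells, and values are medians of duplicate plates.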

Vorinostat + Bortezomib = compound: O=C(CCCCCCC(=O)Nc1ccccc1)NO [Vorinostat] + CC(C)C[C@H](NC(=O)[C@H](Cc1ccccc1)NC(=O)c1cnccn1)B(O)O [Bortezomib] (partner 0.002 µM)
Method in brief: as §1

Vorinostat + Navitoclax = compound: O=C(CCCCCCC(=O)Nc1ccccc1)NO [Vorinostat] + CC1(C)CCC(c2ccc(Cl)cc2)=C(CN2CCN(c3ccc(C(=O)NS(=O)(=O)c4ccc(N[C@H](CCN5CCOCC5)CSc5ccccc5)c(S(=O)(=O)C(F)(F)F)c4)cc3)CC2)C1 [Navitoclax] (partner 0.5 µM)
Method in brief: as §1

Vorinostat + Olaparib = compound: O=C(CCCCCCC(=O)Nc1ccccc1)NO [Vorinostat] + O=C(c1cc(Cc2n[nH]c(=O)c3ccccc23)ccc1F)N1CCN(C(=O)C2CC2)CC1 [Olaparib] (partner 8 µM)
Method in brief: as §1

Vorinostat + Alpelisib = compound: O=C(CCCCCCC(=O)Nc1ccccc1)NO [Vorinostat] + Cc1nc(NC(=O)N2CCC[C@H]2C(N)=O)sc1-c1ccnc(C(C)(C)C(F)(F)F)c1 [Alpelisib] (partner 2 µM)
Method in brief: as §1

Vorinostat + Crizotinib = compound: O=C(CCCCCCC(=O)Nc1ccccc1)NO [Vorinostat] + C[C@@H](Oc1cc(-c2cnn(C3CCNCC3)c2)cnc1N)c1c(Cl)ccc(F)c1Cl [Crizotinib] (partner 1 µM)
Method in brief: as §1

Vorinostat + Lapatinib = compound: O=C(CCCCCCC(=O)Nc1ccccc1)NO [Vorinostat] + CS(=O)(=O)CCNCc1ccc(-c2ccc3ncnc(Nc4ccc(OCc5cccc(F)c5)c(Cl)c4)c3c2)o1 [Lapatinib] (partner 2 µM)
Method in brief: as §1

Vorinostat + Linsitinib = compound: O=C(CCCCCCC(=O)Nc1ccccc1)NO [Vorinostat] + C[C@]1(O)C[C@@H](c2nc(-c3ccc4ccc(-c5ccccc5)nc4c3)c3c(N)nccn32)C1 [Linsitinib] (partner 1 µM)
Method in brief: as §1

Vorinostat + Pictilisib = compound: O=C(CCCCCCC(=O)Nc1ccccc1)NO [Vorinostat] + CS(=O)(=O)N1CCN(Cc2cc3nc(-c4cccc5[nH]ncc45)nc(N4CCOCC4)c3s2)CC1 [Pictilisib] (partner 1 µM)
Method in brief: as §1

Vorinostat = compound: O=C(CCCCCCC(=O)Nc1ccccc1)NO [Vorinostat]
Method in brief: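 A plate was accepted only when its control CV was below 25% and the cells had doubled at least once. Viability is defined from nuclear counts as treated wells divided by vehicle wells, with the median taken across plates. That median covers lung cancer cell lines grown in 1536-well plates, dosed by pinning at five √10-spaced library-drug concentrations, and counted in MetaXpress from 4× Hoechst images after 5 days.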

Row | Cell Line | relative viability (Vorinostat + Foretinib; first compound 0.253 µM) | relative viability (Vorinostat + Foretinib; first compound 0.8 µM) | relative viability (Vorinostat + Foretinib; first compound 2.53 µM) | relative viability (Vorinostat + Foretinib; first compound 8 µM) | relative viability (Vorinostat + Bortezomib; first compound 0.253 µM) | relative viability (Vorinostat + Bortezomib; first compound 0.8 µM) | relative viability (Vorinostat + Bortezomib; first compound 2.53 µM) | relative viability (Vorinostat + Bortezomib; first compound 8 µM) | relative viability (Vorinostat + Navitoclax; first compound 0.253 µM) | relative viability (Vorinostat + Navitoclax; first compound 0.8 µM) | relative viability (Vorinostat + Navitoclax; first compound 2.53 µM) | relative viability (Vorinostat + Navitoclax; first compound 8 µM) | relative viability (Vorinostat + Olaparib; first compound 0.253 µM) | relative viability (Vorinostat + Olaparib; first compound 0.8 µM) | relative viability (Vorinostat + Olaparib; first compound 2.53 µM) | relative viability (Vorinostat + Olaparib; first compound 8 µM) | relative viability (Vorinostat + Alpelisib; first compound 0.253 µM) | relative viability (Vorinostat + Alpelisib; first compound 0.8 µM) | relative viability (Vorinostat + Alpelisib; first compound 2.53 µM) | relative viability (Vorinostat + Alpelisib; first compound 8 µM) | relative viability (Vorinostat + Crizotinib; first compound 0.253 µM) | relative viability (Vorinostat + Crizotinib; first compound 0.8 µM) | relative viability (Vorinostat + Crizotinib; first compound 2.53 µM) | relative viability (Vorinostat + Crizotinib; first compound 8 µM) | relative viability (Vorinostat + Lapatinib; first compound 0.253 µM) | relative viability (Vorinostat + Lapatinib; first compound 0.8 µM) | relative viability (Vorinostat + Lapatinib; first compound 2.53 µM) | relative viability (Vorinostat + Lapatinib; first compound 8 µM) | relative viability (Vorinostat + Linsitinib; first compound 0.253 µM) | relative viability (Vorinostat + Linsitinib; first compound 0.8 µM) | relative viability (Vorinostat + Linsitinib; first compound 2.53 µM) | relative viability (Vorinostat + Linsitinib; first compound 8 µM) | relative viability (Vorinostat + Pictilisib; first compound 0.253 µM) | relative viability (Vorinostat + Pictilisib; first compound 0.8 µM) | relative viability (Vorinostat + Pictilisib; first compound 2.53 µM) | relative viability (Vorinostat + Pictilisib; first compound 8 µM) | relative viability (Vorinostat; 0.253 µM) | relative viability (Vorinostat; 0.8 µM) | relative viability (Vorinostat; 2.53 µM) | relative viability (Vorinostat; 8 µM)
1 | NCI-H1299 | 1.05 | 1.06 | 0.717 | 0.277 | 1.07 | 1.03 | 0.826 | 0.343 | 1.07 | 1 | 0.767 | 0.444 | 1 | 0.909 | 0.642 | 0.329 | 1.15 | 1.05 | 0.789 | 0.454 | 0.992 | 0.812 | 0.554 | 0.291 | 0.979 | 0.87 | 0.736 | 0.466 | 1.15 | 0.923 | 0.51 | 0.265 | 1.1 | 0.677 | 0.221 | 0.075 | 1.06 | 0.979 | 0.786 | 0.36
2 | EBC-1 | 0.117 | 0.101 | 0.0655 | 0.044 | 0.376 | 0.325 | 0.124 | 0.0971 | 0.376 | 0.215 | 0.126 | 0.114 | 0.681 | 0.476 | 0.193 | 0.0767 | 0.675 | 0.65 | 0.143 | 0.0927 | 0.207 | 0.224 | 0.169 | 0.118 | 0.243 | 0.209 | 0.164 | 0.124 | 0.838 | 0.458 | 0.134 | 0.0589 | 0.32 | 0.203 | 0.1 | 0.0715 | 0.913 | 0.654 | 0.222 | 0.0742
